ChEMBL document CHEMBL3400089, “Studies on antimicrobial effects of four ligands and their transition metal complexes with 8-mercaptoquinoline and pyridine terminal groups” (2015)
≈ marks a conversion by molar mass, not a printed value. Structures can show the parent of a compound that is named as a salt.

What was measured:
Assay type in all cases: functional
[1] = test system: Saccharomyces cerevisiae; test: Antimicrobial activity against Saccharomyces cerevisiae after 48 hrs by two fold serial microdilution method
[2] = test system: Aspergillus niger; test: Antimicrobial activity against Aspergillus niger after 48 hrs by two fold serial microdilution method
[3] = test system: Fusarium oxysporum f. sp. cubense; test: Antimicrobial activity against Fusarium oxysporum f. sp. cubense after 48 hrs by two fold serial microdilution method
[4] = test system: Escherichia coli; test: Antimicrobial activity against Escherichia coli ATCC 25922 after 24 hrs by two fold serial microdilution method; details: ATCC 25922, 24 h
[5] = test system: Staphylococcus aureus; test: Antimicrobial activity against Staphylococcus aureus ATCC 27154 after 24 hrs by two fold serial microdilution method; details: ATCC 27154, 24 h
[6] = test system: Sporosarcina ureae; test: Antimicrobial activity against Sarcina ureae after 24 hrs by two fold serial microdilution method
[7] = test system: Pseudomonas aeruginosa; test: Antimicrobial activity against Pseudomonas aeruginosa after 24 hrs by two fold serial microdilution method

Molecule	MIC [1]	MIC [2]	MIC [3]	MIC [4]	MIC [5]	MIC [6]	MIC [7]
NYSTATIN	14.1 µM	14.1 µM	28.2 µM				
c1cnc2c(SCc3ccncc3)cccc2c1				24.8 µM (≈ 6.26 µg/mL)	> 198 µM	> 198 µM	> 198 µM
c1ccc(CSc2cccc3cccnc23)nc1				49.5 µM (≈ 12.5 µg/mL)	> 198 µM	> 198 µM	> 198 µM
c1cc(CSc2cccc3cccnc23)nc(CSc2cccc3cccnc23)c1				7.35 µM (≈ 3.13 µg/mL)	> 117 µM	> 117 µM	> 117 µM
c1cncc(CSc2cccc3cccnc23)c1	> 495 µM	> 495 µM	> 495 µM	99.1 µM (≈ 25 µg/mL)	> 198 µM	> 198 µM	> 198 µM
CN[C@@H]1[C@H](O[C@H]2[C@H](O[C@H]3[C@H](O)[C@@H](O)[C@H](N=C(N)N)[C@@H](O)[C@@H]3N=C(N)N)O[C@@H](C)[C@]2(O)C=O)O[C@@H](CO)[C@H](O)[C@H]1O [STREPTOMYCIN SULFATE]				2.14 µM	1.07 µM	2.14 µM	1.07 µM
CC1(C)S[C@@H]2[C@H](NC(=O)[C@H](N)c3ccccc3)C(=O)N2[C@H]1C(=O)O [AMPICILLIN]				34.7 µM (≈ 12.1 µg/mL)	69.4 µM (≈ 24.2 µg/mL)	17.4 µM (≈ 6.08 µg/mL)	17.4 µM (≈ 6.08 µg/mL)
